Measured values published in patent US11197914B2, “GLP-1R/GCGR dual target agonist polypeptide for treatment of fatty liver diseases, hyperlipemia and arteriosclerosis” (Shenzhen Turier Biotech Co., Ltd., priority 2016, dated 2021).
*1 amine or outer side, *2 acyl side, *3 side chain or, on linkers, in order; H or OH if unused. Primed or numbered codes have the meaning given here. Where no end group is shown, it is not given here. Side-chain parts run from the residue outwards. [ ]: non-standard residue; d: D form. The star is where a group is joined. C18 diacid = O=C(O)CCCCCCCCCCCCCCCCC(=O)*; C16 diacid = O=C(O)CCCCCCCCCCCCCCC(=O)*; γGlu = O=C(O)[C@H](CCC(=O)[*:2])N[*:1]; Stearoyl = CCCCCCCCCCCCCCCCCC(=O)*; Palmitoyl = CCCCCCCCCCCCCCCC(=O)*; Nle = CCCC[C@H](N)C(=O)O; PEG2′ = not defined here; Aib = CC(C)(N)C(=O)O

Test system: Hepatic stellate cell strain LX-2
Test: In vitro inhibition of hepatic fibrosis: expression of LX-2 cell activation marker α-SMA (Western Blot, α-SMA/β-actin)
Format: cell-based, human
Settings: LX-2 cells; for Relative expression of α-SMA (α-SMA/β-actin, %): 1 μM, 48 hours, negative control = 100%
Procedure: Hepatic stellate cell strain LX-2 was selected to study and observe the effect of different doses of test substances on the expression of LX-2 cell activation marker […]. Hepatic stellate cell LX-2 was laid on 35 mm cell culture plate, cultured with DMEM (high glucose)+10% FBS+1% double-antibody culture medium (Thermo Fisher), placed overnight when the cells grew to 70% convergence at 37° C. and under the condition of 5% CO2, and treated with the above compounds 1-37 (dissolved in PBS) for 48 hours the next day morning to extract cell protein, carry out Western Blot, and take β-actin as internal reference and analyze the expression quantities of α-SMA and β-actin by a gray level of Image J 1.50i. PBS with the same volume as that in experimental group was added in negative control. […] The integrating gray level of α-SMA/β-actin in the negative control group was 100% to analyze the in vitro inhibition activity of hepatic fibrosis of tested polypeptide.

**Q.** Which “Inhibition of LX-2 cell activation marker α-SMA (in words, from Table 2)” value (shortened to “Inhibition”) does the source give for “His-(D-Ser)-Gln-Gly-Thr-Phe-Thr-Ser-Asp-Tyr-Ser-Lys(PEG2-PEG2-γGlu-CO(CH2)16CO2H)-Lys-Leu-Asp-Aib-Arg-Arg-Ala-Gln-Asp-Phe-Val-Gln-Trp-Leu-Met-Asn-Thr-Gly-Gly-Pro-Ser-Ser-Gly-Ala-Pro-Pro-Pro-Ser-NH2 (H[dS]QGTFTSDYSK([PEG2′-PEG2′-γGlu-C18 diacid])KLD[Aib]RRAQDFVQWLMNTGGPSSGAPPPS-NH2) [Compound 20]” here?
**A.** obviously reduce

**Q.** And the “Relative expression of α-SMA (α-SMA/β-actin, %)” value?
**A.** 68.39%

**Q.** How did the “Relative expression of α-SMA (α-SMA/β-actin, %)” value turn out when “His-(D-Ser)-Gln-Gly-Thr-Phe-Thr-Ser-Asp-Tyr-Ser-Lys-Tyr-Leu-Asp-Aib-Lys(PEG2-PEG2-CO(CH2)16CO2H)-Arg-Ala-Gln-Asp-Phe-Val-Gln-Trp-Leu-Met-Asn-Thr-Gly-Gly-Pro-Ser-Ser-Gly-Ala-Pro-Pro-Pro-Ser-NH2 (H[dS]QGTFTSDYSKYLD[Aib]K([PEG2′-PEG2′-C18 diacid])RAQDFVQWLMNTGGPSSGAPPPS-NH2) [Compound 10]” was run?
**A.** 71.49%

**Q.** For “His-(D-Ser)-Gln-Gly-Thr-Phe-Thr-Ser-Asp-Tyr-Ser-Lys-Tyr-Leu-Asp-Aib-Lys(PEG2-PEG2-γGlu-CO(CH2)14CH3)-Arg-Ala-Gln-Asp-Phe-Val-Gln-Trp-Leu-Met-Asn-Thr-Gly-Gly-Pro-Ser-Ser-Gly-Ala-Pro-Pro-Pro-Ser-NH2 (H[dS]QGTFTSDYSKYLD[Aib]K([PEG2′-PEG2′-γGlu-Palmitoyl])RAQDFVQWLMNTGGPSSGAPPPS-NH2) [Compound 33]”, which “Relative expression of α-SMA (α-SMA/β-actin, %)” value is on record?
**A.** 95.45%

**Q.** With “His-(D-Ser)-Gln-Gly-Thr-Phe-Thr-Ser-Asp-Tyr-Ser-Lys-Tyr-Leu-Asp-Aib-Lys(PEG2-PEG2-γGlu-CO(CH2)16CO2H)-Arg-Ala-Gln-Asp-Phe-Val-Gln-Trp-Leu-Met-Asn-Thr-Gly-Gly-Pro-Ser-Ser-Gly-Ala-Pro-Pro-Pro-Ser-NH2 (H[dS]QGTFTSDYSKYLD[Aib]K([PEG2′-PEG2′-γGlu-C18 diacid])RAQDFVQWLMNTGGPSSGAPPPS-NH2) [Compound 7]” as the substance, how does the “Relative expression of α-SMA (α-SMA/β-actin, %)” value read?
**A.** 73.52%

**Q.** For “His-(D-Ser)-Gln-Gly-Thr-Phe-Thr-Ser-Asp-Tyr-Ser-Lys-Tyr-Leu-Asp-Glu-Lys-Ala-Ala-Lys(PEG2-PEG2-γGlu-CO(CH2)14CH3)-Glu-Phe-Ile-Glu-Trp-Leu-Leu-Arg-Ala-NH2 (H[dS]QGTFTSDYSKYLDEKAAK([PEG2′-PEG2′-γGlu-Palmitoyl])EFIEWLLRA-NH2) [Compound 23]”, which “Relative expression of α-SMA (α-SMA/β-actin, %)” value is on record?
**A.** 95.91%

**Q.** Which “Relative expression of α-SMA (α-SMA/β-actin, %)” value does the source give for “His-(D-Ser)-Gln-Gly-Thr-Phe-Thr-Ser-Asp-Tyr-Ser-Lys-Tyr-Leu-Asp-Glu-Lys-Ala-Ala-Lys(PEG2-PEG2-γGlu-CO(CH2)14CH3)-Glu-Phe-Ile-Glu-Trp-Leu-Leu-Asn-Gly-Gly-Pro-Ser-Ser-Gly-Ala-Pro-Pro-Pro-Ser-NH2 (H[dS]QGTFTSDYSKYLDEKAAK([PEG2′-PEG2′-γGlu-Palmitoyl])EFIEWLLNGGPSSGAPPPS-NH2) [Compound 29]” here?
**A.** 89.36%

**Q.** “His-(D-Ser)-Gln-Gly-Thr-Phe-Thr-Ser-Asp-Tyr-Ser-Lys-Tyr-Leu-Asp-Glu-Lys-Ala-Ala-Lys(PEG2-PEG2-γGlu-CO(CH2)14CO2H)-Glu-Phe-Ile-Glu-Trp-Leu-Leu-Asn-Gly-Gly-Pro-Ser-Ser-Gly-Ala-Pro-Pro-Pro-Ser-NH2 (H[dS]QGTFTSDYSKYLDEKAAK([PEG2′-PEG2′-γGlu-C16 diacid])EFIEWLLNGGPSSGAPPPS-NH2) [Compound 27]” was tested. Which “Relative expression of α-SMA (α-SMA/β-actin, %)” value did it give?
**A.** 92.34%

**Q.** “His-(D-Ser)-Gln-Gly-Thr-Phe-Thr-Ser-Asp-Tyr-Ser-Lys-Tyr-Leu-Asp-Glu-Lys-Ala-Ala-Lys(PEG2-PEG2-γGlu-CO(CH2)16CH3)-Glu-Phe-Ile-Glu-Trp-Leu-Leu-Arg-Ala-NH2 (H[dS]QGTFTSDYSKYLDEKAAK([PEG2′-PEG2′-γGlu-Stearoyl])EFIEWLLRA-NH2) [Compound 24]” was tested. Which “Relative expression of α-SMA (α-SMA/β-actin, %)” value did it give?
**A.** 82.42%

**Q.** Which “Relative expression of α-SMA (α-SMA/β-actin, %)” value does the source give for “His-(D-Ser)-Gln-Gly-Thr-Phe-Thr-Ser-Asp-Tyr-Ser-Lys-Tyr-Leu-Asp-Glu-Lys-Ala-Ala-Lys(PEG2-PEG2-γGlu-CO(CH2)16CH3)-Glu-Phe-Ile-Glu-Trp-Leu-Leu-Asn-Gly-Gly-Pro-Ser-Ser-Gly-Ala-Pro-Pro-Pro-Ser-NH2 (H[dS]QGTFTSDYSKYLDEKAAK([PEG2′-PEG2′-γGlu-Stearoyl])EFIEWLLNGGPSSGAPPPS-NH2) [Compound 28]” here?
**A.** 87.62%

**Q.** “His-(D-Ser)-Gln-Gly-Thr-Phe-Thr-Ser-Asp-Tyr-Ser-Lys-Tyr-Leu-Asp-Glu-Lys-Ala-Ala-Lys(PEG2-PEG2-γGlu-CO(CH2)16CO2H)-Glu-Phe-Ile-Glu-Trp-Leu-Leu-Arg-Ala-NH2 (H[dS]QGTFTSDYSKYLDEKAAK([PEG2′-PEG2′-γGlu-C18 diacid])EFIEWLLRA-NH2) [Compound 18]” was tested. Which “Relative expression of α-SMA (α-SMA/β-actin, %)” value did it give?
**A.** 75.60%

**Q.** For “His-(D-Ser)-Gln-Gly-Thr-Phe-Thr-Ser-Asp-Tyr-Ser-Lys-Tyr-Leu-Asp-Glu-Lys-Ala-Ala-Lys(PEG2-PEG2-γGlu-CO(CH2)16CO2H)-Glu-Phe-Ile-Glu-Trp-Leu-Leu-Asn-Gly-Gly-Pro-Ser-Ser-Gly-Ala-Pro-Pro-Pro-Ser-NH2 (H[dS]QGTFTSDYSKYLDEKAAK([PEG2′-PEG2′-γGlu-C18 diacid])EFIEWLLNGGPSSGAPPPS-NH2) [Compound 26]”, which “Relative expression of α-SMA (α-SMA/β-actin, %)” value is on record?
**A.** 94.44%

**Q.** With “His-(D-Ser)-Gln-Gly-Thr-Phe-Thr-Ser-Asp-Tyr-Ser-Lys-Tyr-Leu-Asp-Lys(PEG2-PEG2-CO(CH2)16CO2H)-Arg-Arg-Ala-Gln-Asp-Phe-Val-Gln-Trp-Leu-Met-Asn-Thr-Gly-Gly-Pro-Ser-Ser-Gly-Ala-Pro-Pro-Pro-Ser-NH2 (H[dS]QGTFTSDYSKYLDK([PEG2′-PEG2′-C18 diacid])RRAQDFVQWLMNTGGPSSGAPPPS-NH2) [Compound 35]” as the substance, how does the “Inhibition” value read?
**A.** obviously reduce

**Q.** And the “Relative expression of α-SMA (α-SMA/β-actin, %)” value?
**A.** 61.28%

**Q.** “His-(D-Ser)-Gln-Gly-Thr-Phe-Thr-Ser-Asp-Tyr-Ser-Lys-Tyr-Leu-Asp-Lys(PEG2-PEG2-γGlu-CO(CH2)14CH3)-Arg-Arg-Ala-Gln-Asp-Phe-Val-Gln-Trp-Leu-Nle-Asn-Thr-Gly-Gly-Pro-Ser-Ser-Gly-Ala-Pro-Pro-Pro-Ser-NH2 (H[dS]QGTFTSDYSKYLDK([PEG2′-PEG2′-γGlu-Palmitoyl])RRAQDFVQWL[Nle]NTGGPSSGAPPPS-NH2) [Compound 37]” was tested. Which “Relative expression of α-SMA (α-SMA/β-actin, %)” value did it give?
**A.** 42.45%

**Q.** Which “Inhibition” value does the source give for “His-(D-Ser)-Gln-Gly-Thr-Phe-Thr-Ser-Asp-Tyr-Ser-Lys-Tyr-Leu-Asp-Lys(PEG2-PEG2-γGlu-CO(CH2)16CH3)-Arg-Arg-Ala-Gln-Asp-Phe-Val-Gln-Trp-Leu-Met-Asn-Thr-Gly-Gly-Pro-Ser-Ser-Gly-Ala-Pro-Pro-Pro-Ser-NH2 (H[dS]QGTFTSDYSKYLDK([PEG2′-PEG2′-γGlu-Stearoyl])RRAQDFVQWLMNTGGPSSGAPPPS-NH2) [Compound 36]” here?
**A.** obviously reduce

**Q.** What about the “Relative expression of α-SMA (α-SMA/β-actin, %)” value of the same substance?
**A.** 62.49%

**Q.** With “His-(D-Ser)-Gln-Gly-Thr-Phe-Thr-Ser-Asp-Tyr-Ser-Lys-Tyr-Leu-Asp-Lys(PEG2-PEG2-γGlu-CO(CH2)16CO2H)-Arg-Arg-Ala-Gln-Asp-Phe-Val-Gln-Trp-Leu-Met-Asn-Thr-Gly-Gly-Pro-Ser-Ser-Gly-Ala-Pro-Pro-Pro-Ser-NH2 (H[dS]QGTFTSDYSKYLDK([PEG2′-PEG2′-γGlu-C18 diacid])RRAQDFVQWLMNTGGPSSGAPPPS-NH2) [Compound 34]” as the substance, how does the “Relative expression of α-SMA (α-SMA/β-actin, %)” value read?
**A.** 88.18%

**Q.** For “His-(D-Ser)-Gln-Gly-Thr-Phe-Thr-Ser-Asp-Tyr-Ser-Lys-Tyr-Leu-Asp-Ser-Lys(PEG2-PEG2-γGlu-CO(CH2)16CH3)-Ala-Ala-His-Asp-Phe-Val-Glu-Trp-Leu-Leu-Arg-Ala-NH2 (H[dS]QGTFTSDYSKYLDSK([PEG2′-PEG2′-γGlu-Stearoyl])AAHDFVEWLLRA-NH2) [Compound 25]”, which “Relative expression of α-SMA (α-SMA/β-actin, %)” value is on record?
**A.** 93.34%

**Q.** With “His-(D-Ser)-Gln-Gly-Thr-Phe-Thr-Ser-Asp-Tyr-Ser-Lys-Tyr-Leu-Asp-Ser-Lys(PEG2-PEG2-γGlu-CO(CH2)16CO2H)-Ala-Ala-His-Asp-Phe-Val-Glu-Trp-Leu-Leu-Arg-Ala-NH2 (H[dS]QGTFTSDYSKYLDSK([PEG2′-PEG2′-γGlu-C18 diacid])AAHDFVEWLLRA-NH2) [Compound 17]” as the substance, how does the “Relative expression of α-SMA (α-SMA/β-actin, %)” value read?
**A.** 75.38%

**Q.** With “His-(D-Ser)-Gln-Gly-Thr-Phe-Thr-Ser-Asp-Tyr-Ser-Lys-Tyr-Leu-Asp-Ser-Lys(PEG2-PEG2-γGlu-CO(CH2)16CO2H)-Ala-Ala-His-Asp-Phe-Val-Glu-Trp-Leu-Leu-Asn-Gly-Gly-Pro-Ser-Ser-Gly-Ala-Pro-Pro-Pro-Ser-NH2 (H[dS]QGTFTSDYSKYLDSK([PEG2′-PEG2′-γGlu-C18 diacid])AAHDFVEWLLNGGPSSGAPPPS-NH2) [Compound 21]” as the substance, how does the “Relative expression of α-SMA (α-SMA/β-actin, %)” value read?
**A.** 97.66%

**Q.** With “His-Aib-Gln-Gly-Thr-Phe-Thr-Ser-Asp-Lys(PEG2-PEG2-γGlu-CO(CH2)14CH3)-Ser-Lys-Tyr-Leu-Asp-Aib-Arg-Arg-Ala-Gln-Asp-Phe-Val-Gln-Trp-Leu-Leu-Asp-Gly-Gly-Pro-Ser-Ser-Gly-Ala-Pro-Pro-Pro-Ser-NH2 (H[Aib]QGTFTSDK([PEG2′-PEG2′-γGlu-Palmitoyl])SKYLD[Aib]RRAQDFVQWLLDGGPSSGAPPPS-NH2) [Compound 8]” as the substance, how does the “Relative expression of α-SMA (α-SMA/β-actin, %)” value read?
**A.** 80.25%
